Each compound was assayed on HCV genotype 1b replicon (assay: HCV replicon assay, genotype 1b). Conditions: Hepatitis C virus; genotype 1b replicon cells, 24 to 72 hours incubation, luciferase activity.
Assay type: cell-based, hepatitis C virus
Method: The HCV replicons and NS5A inhibitory activity of the present compounds may be tested using assays known in the art. HCV inhibitors, such as those described in the Examples herein have activities in genotype 1b, 2a and 1a replicon assays of from about 1 pM to about 1 μM. The assay is performed by incubating a replicon harboring cell-line in the presence of inhibitor for a set period of time and measuring the effect of the inhibitor on HCV replicon replication either directly by quantifying replicon RNA level, or indirectly by measuring enzymatic activity of a co-encoded reporter enzyme such as luciferase or β-lactamase. By performing a series of such measurements at different inhibitor concentrations, the effective inhibitory concentration of the inhibitor (EC50 or EC90) is determined. See Jan M. Vrolijk et al., A replicons-based bioassay for the measurement of interferons in patients with chronic hepatitis C, 110 J. VIROLOGICAL METHODS 201 (2003). Such assays may also be run in an automated format for high through-put screening. See Paul Zuck et al., A cell-based β-lactamase reporter gene assay for the identification of inhibitors of hepatitis C virus replication, 334 ANALYTICAL BIOCHEMISTRY 344 (2004).
Measurement of inhibition by compounds was performed using the HCV replicon system. Several different replicons encoding different HCV genotypes or mutations were used. In addition, potency measurements were made using different formats of the replicon assay, including different ways of measurements and different plating formats. See Jan M. Vrolijk et al., A replicons-based bioassay for the measurement of interferons in patients with chronic hepatitis C, 110 J. VIROLOGICAL METHODS 201 (2003); Steven S. Carroll et al., Inhibition of Hepatitis C Virus RNA Replication by 2′-Modified Nucleoside Analogs, 278(14) J. BIOLOGICAL CHEMISTRY 11979 (2003). However, the underlying principles are common to all of these determinations, and are outlined below.
Stable neomycin phosphotransferase encoding replicon-harboring cell lines were used, so all cell lines were maintained under G418 selection prior to the assay. In some cases, the cell lines encoded a luciferase:Neor fusion and could be assayed either directly by determination of RNA copy number, or indirectly through measurement of the luciferase activity.
To initiate an assay, replicon cells were plated in the presence of a dilution series of test compound in the absence of G418. Typically, the assays were performed in a 96-well plate format for manual operation, or a 384-well plate in an automated assay. Replicon cells and compound were incubated for 24 to 72 hours. At the end of the assay, cells are washed free of media and compound and then lysed. Luciferase activity was measured using a conventional luciferase assay. EC50 determinations were calculated as a percent of a DMSO control by fitting the data to a four parameter fit function.
The activity table below provides representative data illustrating observed activity against genotype 1b.

`CC(C)(C)OC(=O)N[C@@H](C(=O)N1CCC[C@H]1C(=O)Nc1ccc2[nH]c(-c3ccc(-c4cnc([C@@H]5CCCN5C(=O)OCc5ccccc5)[nH]4)cc3)cc2c1)c1ccccc1` [Example 100, benzyl (2S)-2-[5-(4-{5-[(1-{(2R)-2-[(tert-butoxycarbonyl)amino]-2-phenylacetyl}-L-prolyl)amino]-1H-indol-2-yl}phenyl)-1H-imidazol-2-yl]pyrrolidine-1-carboxylate] and `CN(C)[C@@H](C(=O)N1CCC[C@H]1c1ncc(-c2ccc(-c3cc4cc(NC(=O)[C@@H]5CCCN5C(=O)[C@H](NC(=O)OC(C)(C)C)c5ccccc5)ccc4[nH]3)cc2)[nH]1)c1ccccc1` [Example 107, tert-butyl {(1R)-2-[(2S)-2-({2-[4-(2-{(2S)-1-[(2R)-2-(dimethylamino)-2-phenylacetyl]pyrrolidin-2-yl}-1H-imidazol-5-yl)phenyl]-1H-indol-5-yl}carbamoyl)pyrrolidin-1-yl]-2-oxo-1-phenylethyl}carbamate] are within 1.5-fold of each other in EC50: 0.031 nM for the first, 0.04 nM for the second.

Going from `CN(C)[C@@H](C(=O)N1CCC[C@H]1C(=O)Nc1ccc2[nH]c(-c3ccc(-c4cnc([C@@H]5CCCN5C(=O)[C@@H](c5ccccc5)N(C)C)[nH]4)cc3)cc2c1)c1ccccc1` [Example 101, 1-[(2R)-2-(dimethylamino)-2-phenylacetyl]-N-{2-[4-(2-{(2S)-1-[(2R)-2-(dimethylamino)-2-phenylacetyl]pyrrolidin-2-yl}-1H-imidazol-5-yl)phenyl]-1H-indol-5-yl}-L-prolinamide] to `CN(C)[C@H](C(=O)N1CCC[C@H]1C(=O)Nc1ccc2[nH]c(-c3ccc(-c4cnc([C@@H]5CCCN5C(=O)[C@H](c5ccccc5)N(C)C)[nH]4)cc3)cc2c1)c1ccccc1` [Example 103, 1-[(2S)-2-(dimethylamino)-2-phenylacetyl]-N-{2-[4-(2-{(2S)-1-[(2S)-2-(dimethylamino)-2-phenylacetyl]pyrrolidin-2-yl}-1H-imidazol-5-yl)phenyl]-1H-indol-5-yl}-L-prolinamide], the EC50 rises from 0.5 nM to 5.7 nM (11-fold).

Going from `CC(C)(C)OC(=O)N[C@@H](C(=O)N1CCC[C@H]1C(=O)Nc1ccc2[nH]c(-c3ccc(-c4c[nH]cn4)cc3)cc2c1)c1ccccc1` [Example 102, tert-butyl {(1R)-2-[(2S)-2-({2-[4-(1H-imidazol-4-yl)phenyl]-1H-indol-5-yl}carbamoyl)pyrrolidin-1-yl]-2-oxo-1-phenylethyl}carbamate] to `CC(=O)N1CCC[C@H]1c1ncc(-c2ccc(-c3cc4cc(NC(=O)[C@@H]5CCCN5C(=O)[C@H](NC(=O)OC(C)(C)C)c5ccccc5)ccc4[nH]3)cc2)[nH]1` [Example 105, tert-butyl{(1R)-2-[(2S)-2-{[2-(4-{2-[(2S)-1-acetylpyrrolidin-2-yl]-1H-imidazol-5-yl}phenyl)-1H-indol-5-yl]carbamoyl}pyrrolidin-1-yl]-2-oxo-1-phenylethyl}carbamate], the EC50 falls from 8.3 nM to 0.08 nM (100-fold). The second is the more potent here.

First: COC(=O)N[C@H](C(=O)N1CCC[C@H]1C(=O)Nc1ccc2[nH]c(-c3ccc(-c4cnc([C@@H]5CCCN5C(=O)[C@@H](NC(=O)OC)C(C)C)[nH]4)cc3)cc2c1)C(C)C [Example 116, N-(methoxycarbonyl)-L-valyl-N-{2-[4-(2-{(2S)-1-[N-(methoxycarbonyl)-L-valyl]pyrrolidin-2-yl}-1H-imidazol-5-yl)phenyl]-1H-indol-5-yl}-L-prolinamide]
Second: CC(C)OC(=O)N[C@@H](C(=O)N1CCC[C@H]1C(=O)Nc1ccc2[nH]c(-c3ccc(-c4ncc([C@@H]5CCCN5C(=O)[C@H](NC(=O)OC(C)C)c5ccccc5)[nH]4)cc3)cc2c1)c1ccccc1 [Example 119, propan-2-yl [(1R)-2-oxo-1-phenyl-2-{(2S)-2-[2-(4-{5-[({(2S)-1-[(2R)-2-phenyl-2-{[(propan-2-yloxy)carbonyl]amino}acetyl]pyrrolidin-2-yl}carbonyl)amino]-1H-indol-2-yl}phenyl)-1H-imidazol-5-yl]pyrrolidin-1-yl}ethyl]carbamate]
The EC50 of the first is 5-fold higher: 0.065 nM for the first, 0.013 nM for the second. The second is the more potent here.

Compared with `CC(C)(C)OC(=O)N[C@@H](C(=O)N1CCC[C@H]1C(=O)Nc1ccc2[nH]c(-c3ccc4[nH]c([C@@H]5CCCN5C(=O)[C@H](NC(=O)OC(C)(C)C)c5ccccc5)nc4c3)cc2c1)c1ccccc1` [Example 125, tert-butyl [(1R)-2-{(2S)-2-[(2-{2-[(2S)-1-{(2R)-2-[(tert-butoxycarbonyl)amino]-2-phenylacetyl}pyrrolidin-2-yl]-1H-benzimidazol-5-yl}-1H-indol-5-yl)carbamoyl]pyrrolidin-1-yl}-2-oxo-1-phenylethyl]carbamate], `CC(C)(C)OC(=O)N[C@H](C(=O)N1CCC[C@H]1C(=O)Nc1ccc(-c2[nH]c3ccc(NC(=O)[C@@H]4CCCN4C(=O)[C@@H](NC(=O)OC(C)(C)C)c4ccccc4)cc3c2F)cc1)c1ccccc1` [Example 130, tert-butyl {(1S)-2-[(2S)-2-({4-[5-({[(2S)-1-{(2S)-2-[(tert-butoxycarbonyl)amino]-2-phenylacetyl}pyrrolidin-2-yl]carbonyl}amino)-3-fluoro-1H-indol-2-yl]phenyl}carbamoyl)pyrrolidin-1-yl]-2-oxo-1-phenylethyl}carbamate] is 3.1-fold higher in EC50: 0.016 nM for the first, 0.05 nM for the second.

`O=C(Nc1ccc(-c2[nH]c3ccc(NC(=O)[C@@H]4CCCN4C(=O)Cc4ccccc4)cc3c2F)cc1)[C@@H]1CCCN1C(=O)Cc1ccccc1` [Example 129, (2S)-N-{4-[3-fluoro-5-({[(2S)-1-(phenylacetyl)pyrrolidin-2-yl]carbonyl}amino)-1H-indol-2-yl]phenyl}-1-(phenylacetyl) pyrrolidine-2-carboxamide] and `N#Cc1c(-c2ccc(NC(=O)[C@@H]3CCCN3C(=O)Cc3ccccc3)cc2)[nH]c2ccc(NC(=O)[C@@H]3CCCN3C(=O)Cc3ccccc3)cc12` [Example 155, (2S)—N-{4-[3-cyano-5-({[(2S)-1-(phenylacetyl)pyrrolidin-2-yl]carbonyl}amino)-1H-indol-2-yl]phenyl}-1-(phenylacetyl)pyrrolidine-2-carboxamide] are within 1.5-fold of each other in EC50: 0.7 nM for the first, 0.9 nM for the second.

Compared with `CC(=O)Nc1ccc(-c2[nH]c3ccc(NC(=O)[C@@H]4CCCN4C(=O)[C@@H](NC(=O)OC(C)(C)C)c4ccccc4)cc3c2Cl)cc1` [Example 131, tert-butyl {(1S)-2-[(2S)-2-({2-[4-(acetylamino)phenyl]-3-chloro-1H-indol-5-yl}carbamoyl)pyrrolidin-1-yl]-2-oxo-1-phenylethyl}carbamate], `CC(=O)N1CCC[C@H]1C(=O)Nc1ccc(-c2[nH]c3ccc(NC(=O)[C@@H]4CCCN4C(=O)[C@H](NC(=O)OC(C)(C)C)c4ccccc4)cc3c2F)cc1` [Example 137, tert-butyl {(1R)-2-[(2S)-2-({2-[4-({[(2S)-1-acetylpyrrolidin-2-yl]carbonyl}amino)phenyl]-3-fluoro-1H-indol-5-yl}carbamoyl)pyrrolidin-1-yl]-2-oxo-1-phenylethyl}carbamate] is 1900-fold lower in EC50: 17 nM for the first, 0.009 nM for the second.

Going from `CC(C)(C)OC(=O)N[C@@H](C(=O)N1CCC[C@H]1C(=O)Nc1ccc2[nH]c(-c3ccc(N4CCCC4=O)cc3)c(F)c2c1)c1ccccc1` [Example 138, tert-butyl {(1R)-2-[(2S)-2-({3-fluoro-2-[4-(2-oxopyrrolidin-1-yl)phenyl]-1H-indol-5-yl}carbamoyl)pyrrolidin-1-yl]-2-oxo-1-phenylethyl}carbamate] to `CC(C)OC(=O)N[C@@H](C(=O)N1CCC[C@H]1C(=O)Nc1ccc(-c2[nH]c3ccc(NC(=O)[C@@H]4CCCN4C(=O)OC(C)(C)C)cc3c2F)cc1)c1ccccc1` [Example 144, tert-butyl (2S)-2-[(3-fluoro-2-{4-[({(2S)-1-[(2R)-2-phenyl-2-{[(propan-2-yloxy)carbonyl]amino}acetyl]pyrrolidin-2-yl}carbonyl)amino]phenyl}-1H-indol-5-yl)carbamoyl] pyrrolidine-1-carboxylate], the EC50 falls from 8.5 nM to 0.036 nM (240-fold). The second is the more potent here.

Work on `CC(C)(C)OC(=O)N[C@@H](C(=O)N1CCC[C@H]1C(=O)Nc1ccc(-c2[nH]c3ccc(NC(=O)[C@@H]4CCCN4C(=O)[C@H](NC(=O)OC(C)(C)C)c4ccccc4)cc3c2C(=O)NC2CC2)cc1)c1ccccc1` [Example 158, tert-butyl {(1R)-2-[(2S)-2-({4-[5-({[(2S)-1-{(2R)-2-[(tert-butoxycarbonyl)amino]-2-phenylacetyl}pyrrolidin-2-yl]carbonyl}amino)-3-(cyclopropylcarbamoyl)-1H-indol-2-yl]phenyl}carbamoyl)pyrrolidin-1-yl]-2-oxo-1-phenylethyl}carbamate] yielded an EC50 of 0.5 nM.

— patent US11053243B2 (Merck Sharp & Dohme Corp., priority 2009, dated 2021)
